Consider 1 substance from US11001615B2, “Mutated tau protein fragment and use thereof” (ADEL INC., priority 2016, dated 2021).

Common to all, as to assay type: in vivo
Test [1] relates to Tau-P301L dementia mice. The test can be described thus: Western blotting of brain tissues for tau proteins (tauopathy-alleviating effect). Conditions: brain tissue. As for the experimental part:
(§1) JNPL3 mice expressing Tau-P301L mutant gene were purchased from Taconic, and back-crossed with C57bl/6 mice for five generations in the experimental animal room of the Asan Institute for Life Sciences. Then, the mice were raised under a specific pathogen free (SPE) condition. For active immunization, the mice were administered, for six months starting from three months after birth at intervals of two weeks, two weeks, four weeks, four weeks, five weeks, four weeks, and one week in this order, the four modified tau protein fragments prepared in Preparation Example 1 together with keyhole limpet hemocyanin (KLH) as a carrier and an aluminum adjuvant. At this time, administration was carried out through intraperitoneal injection (IP injection). The dementia mice which were actively immunized by administration of the K280-ac fragment were designated as Tau-P301L-K280-ac.
(§2) In order to identify a tauopathy-alleviating effect following administration of the K280-ac fragment, brain tissues of the Tau-P301L-K280-ac dementia mice, the P301L-K280-ac dementia mice, and the normal mice produced in Preparation Example 2 were extracted, and western blotting and immunohistochemical staining were performed.

Test [2] deals with Tau-P301L dementia mice. The test is described as follows: Immunohistochemical staining of brain tissues for tau proteins. Conditions: brain tissue. Here is the method: as §1, §2
Test [3] deals with Tau-P301L dementia mice. The test is described as follows: Memory tests and motor ability tests after active immunization (overall comparison). The settings on record: comparison of the four modified tau protein fragments.
From the text: Tau-P301L dementia mice were actively immunized by administration of the four modified tau protein fragments prepared in Preparation Example 1. Then, the Tau-P301L dementia mice were subjected to memory tests such as fear conditioning test and Morris water maze test, motor ability tests such as grip strength test and vertical test, and the like, so that improved effects obtained by the respective modified tau protein fragments were compared.
as §1

Test [4] has as its system Tau-P301L dementia mice. The test is described as follows: Western blotting of brain tissues for GCP-II. Conditions: brain tissue. As for the experimental part:
as §1
Glutamate carboxypeptidase-2 ([…], folate hydrolase 1) is a NAAG peptidase that degrades NAAG. There is a possibility that an increase in GCP-II is a cause for decreased NAAG. Thus, brain tissues of the Tau-P301L-K280-ac dementia mice, the P301L-K280-ac dementia mice, and the normal mice produced in Preparation Example 2 were extracted and western blotting was performed.
(Immunoblotting shows a protein as a band on a membrane.)

Test [5] deals with Tau-P301L dementia mice. The test can be described thus: Antibody distribution in brain tissue (immunohistochemical staining and western blotting for mouse immunoglobulin-G). The settings on record: after cardiac perfusion. Here is the method:
as §1
In order to identify antibodies in brain tissues of the Tau-P301L-K280-ac dementia mice, the P301L-K280-ac dementia mice, and the normal mice produced in Preparation Example 2, cardiac perfusion was performed with cold physiological saline. Then, the brain tissues were extracted, and immunohistochemical staining and western blotting were performed for mouse immunoglobulin-G.

In test [6] the test system is Tau-P301L dementia mice. The test can be described thus: Rota-rod test. The settings on record: 5th day. Here is the method: as §1, with “Tau-P301L-K280-ac. […]” for “Tau-P301L-K280-ac.”
Specifically, the test was intended to measure how long the mice are able to stay on a rotating rotor. The mice were trained for 4 days and a motor ability thereof was measured on the 5th day. The training was repeated three times a day, during which the time to stay on the rotor and the final rpm were measured while increasing the rpm of the rotor. On the 5th day, the experiment was conducted under the same condition except that a result was measured only once without repeating (FIGS. 14 and 15).

For test [7], the system named is Tau-P301L dementia mice. The test can be described thus: Nest building test. The settings on record: Tau-P301L about 50% decrease versus normal mice. Here is the method:
as §1
Behavioral experiments were conducted to identify changes in motor ability and cognitive function of the Tau-P301L dementia mice produced in Preparation Example 2. A nest building test which can identify a multimodal brain function of the mice was performed.
Specifically, two-thirds of the litter in a cage where the mice are raised was removed and four layers of sterile cotton (5 cm×5 cm) were placed in the cage. One mouse was allowed to enter one cage. The next morning, a degree of completion of the nest was analyzed.

In test [8] the test system is Tau-P301L dementia mice. The test is described as follows: Forced swimming test. Conditions: second day, 5 minutes. Here is the method: as §1
A forced swimming test was conducted to identify a depression-ameliorating effect in the Tau-P301L dementia mice produced in Preparation Example 2. The experiment was conducted for a total of 2 days. […] An index to swim in water (Swimming/S), an index to climb up along the beaker wall (Climbing/C), and an index to float in water without any movement (Immobility/I) were respectively analyzed.

In test [9] the test system is Tau-P301L dementia mice. The test can be described thus: Western blotting of brain tissues for synapse-related proteins. Conditions: brain tissue. As for the experimental part:
as §1
In order to identify a synapse-improving effect following administration of the K280-ac fragment, brain tissues of the Tau-P301L-K280-ac dementia mice, the P301L-K280-ac dementia mice, and the normal mice produced in Preparation Example 2 were extracted, and western blotting was performed.

In test [10] the test system is Tau-P301L dementia mice. The test can be described thus: Western blotting of cerebral cortex fractions (tau aggregation-mitigating effect). The settings on record: cerebral cortex fractions (soluble or insoluble). Here is the method: as §1
In order to identify a tau aggregation-mitigating effect following administration of the K280-ac fragment, western blotting was performed with the cerebral cortices of the Tau-P301L-K280-ac dementia mice, the P301L-K280-ac dementia mice, and the normal mice produced in Preparation Example 2.

For test [11], the system named is Tau-P301L dementia mice. The test can be described thus: Water maze test. Conditions: 5th day, platform removed; normal mice about 3, Tau-P301L about 1. Here is the method:
as §1
An underwater maze test was performed to evaluate a learning and memory ability of the mice. […] Specifically, the underwater maze test took a total of 5 days. The mice were trained for 4 days in a state where a platform and a visual cue for the platform location are placed.
The learning was conducted by filling a swimming pool (1.4 m in diameter, 45 cm in depth) having a platform with water (29±0.5° C.) to a depth of about 26.5 cm, and then 1.5 L of whole milk powder was added to make water cloudy so that the mice can remember the platform with the cue only. Then, the mice were adapted to freely swim for 60 seconds and allowed to rest on the platform for 1 minute. The experiment was performed over a total of 12 times with 4 sets at three different starting positions. At the end of each test, 30 seconds of break time was given. At the end of one set, 30 to 45 minutes of break time was given.
After 4 days of learning, the test was performed on the 5th day. In the experiment for evaluation, the platform was not placed, and the number of staying in the area where the platform has been placed was measured in order to identify whether the mice visit well the platform location using the cue only. The test time was set for the mice to arrive at the location where the platform had been placed within one minute. If the mice fail to arrive at the platform location within one minute, the mice were removed out of the swimming pool.

Entries after “also recorded” stand apart in the source; their conditions may differ. Ends that are not written are not given here.

On to “Val-Gln-Ile-Ile-Asn-Lys-Lys-Leu-Asp-Leu-Ser-Asn (VQIINK(Ac)KLDLSN) [K280-ac]”, for which, in the test with Tau-P301L dementia mice [1], the acetylated tau proteins entry was “decrease” and the phosphorylated tau proteins entry is given as “decrease”. The “tau proteins in which lysine, the 280th amino acid, is acetylated” value in the test with Tau-P301L dementia mice [1] (Tau-P301L 2-fold increase versus normal mice) is listed as “decreased level of tau proteins which corresponds to that in the normal mice”. In addition, in the test on Tau-P301L dementia mice [2], the acetylated tau proteins result was “decreased” and the phosphorylated tau proteins result is given as “decreased”. In the test with Tau-P301L dementia mice [3], the “improved effect in memory and motor ability tests” value was “improved effect at a level similar to that in normal mice; also recorded: restores a motor ability and a cognitive function”. Further, the “expression level of GCP-II” value with Tau-P301L dementia mice [4] is given as “decreased expression level of GCP-II which corresponds to that in the normal mice”. Moreover, the “antibodies in brain tissues” value in the test on Tau-P301L dementia mice [5] was “antibodies are present”. For the same substance, in the test with Tau-P301L dementia mice [6], the rota-rod rpm result is listed as “increased to levels which correspond to those for the normal mice” and the rota-rod time entry is on record as “increased to levels which correspond to those for the normal mice”. In addition, in the test with Tau-P301L dementia mice [7], the building score result is on record as “restored to a level which is similar to that in the normal mice”. In the test with Tau-P301L dementia mice [8], the “depression-ameliorating effect (immobility, swimming, climbing)” value was “depression-ameliorating effect is exhibited”. For the same substance, the “expression level of synapse-related proteins such as PSD95, NMDA receptor, synaptophysin, and synapsin-1” value in the test with Tau-P301L dementia mice [9] was “restored to that in the normal mice”. For the same substance, in the test on Tau-P301L dementia mice [10], the acetylated tau proteins entry was “decreased”, the entire tau protein result was “decreased” and the phosphorylated tau proteins entry is “decreased”. The number of arrivals entry in the test with Tau-P301L dementia mice [11] was “about 3 times”.
